We go through eleven compounds from patent US20230117324A1, “OXAZINE MONOACYLGLYCEROL LIPASE (MAGL) INHIBITORS” (Hoffmann-La Roche Inc., priority 2018, published 2023).

The target of the assay is T1, MAGL (Homo sapiens, UniProt Q99685).
T1 sequence (Q99685 1-303): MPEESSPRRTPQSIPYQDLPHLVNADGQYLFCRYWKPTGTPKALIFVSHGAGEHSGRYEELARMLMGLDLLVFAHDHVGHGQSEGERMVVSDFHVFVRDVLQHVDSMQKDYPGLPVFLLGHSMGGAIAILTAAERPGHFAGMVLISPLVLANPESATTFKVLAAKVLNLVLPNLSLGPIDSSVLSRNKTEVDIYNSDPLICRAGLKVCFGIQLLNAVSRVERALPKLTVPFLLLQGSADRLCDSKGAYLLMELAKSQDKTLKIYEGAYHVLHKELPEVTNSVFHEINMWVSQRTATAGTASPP
Description: MAGL inhibition, 2-AG assay (hydrolysis of 2-arachidonoylglycerol, arachidonic acid by mass spectrometry). Format: biochemical. The settings on record: 2-AG assay (footnote [b]). The protocol:
Alternatively, compounds were profiled for MAGL inhibitory activity by determining the enzymatic activity by following the hydrolysis of the natural substrate 2-arachidonoylglycerol (2-AG) resulting in arachidonic acid, which can be followed by mass spectrometry. This assay is hereinafter abbreviated “2-AG assay”.
The 2-AG assay was carried out in 384 well assay plates (PP, Greiner Cat #784201) in a total volume of 20 μL. Compound dilutions were made in 100% DMSO (VWR Chemicals 23500.297) in a polypropylene plate in 3-fold dilution steps to give a final concentration range in the assay from 12.5 μM to […]. 0.25 μL compound dilutions (100% DMSO) were added to 9 μL MAGL in assay buffer (50 mM TRIS (GIBCO, 15567-027), 1 mM EDTA (Fluka, 03690-100 mL), 0.01% (v/v) Tween. After shaking, the plate was incubated for 15 min at RT. To start the reaction, 10 μL 2-arachidonoylglycerol in assay buffer was added. The final concentrations in the assay was […] and 8 μM 2-arachidonoylglyerol. After shaking and 30 min incubation at RT, the reaction was quenched by the addition of 40 μL of ACN containing 4 μM of d8-arachidonic acid. The amount of arachidonic acid was traced by an online SPE system (Agilent Rapidfire) coupled to a triple quadrupole mass spectrometer (Agilent 6460). A C18 SPE cartridge (G9205A) was used in an ACN/water liquid setup. The mass spectrometer was operated in negative electrospray mode following the mass transitions 303.1→259.1 for arachidonic acid and 311.1→267.0 for d8-arachidonic acid. The activity of the compounds was calculated based on the ratio of intensities [arachidonic acid/d8-arachidonic acid].
Turning to `O=C1CO[C@H]2CCN(C(=O)N3CC(c4cccc(Br)c4)C3)C[C@H]2N1` [Example 139, (4aR,8aS)-6-(3-(3-Bromophenyl)azetidine-1-carbonyl)hexahydro-2H-pyrido[4,3-b][1,4]oxazin-3(4H)-one], the 50% inhibitory concentration (IC50) was 27 nM.

`O=C1CO[C@H]2CCN(C(=O)N3CC(c4ccc(Br)cc4)C3)C[C@H]2N1` [Example 110, (4aR,8aS)-6-[3-(4-bromophenyl)azetidine-1-carbonyl]-4,4a,5,7,8,8a-hexahydropyrido[4,3-b][1,4]oxazin-3-one] showed a half-maximal inhibitory concentration (IC50) of 29 nM.

`CC(OC1CN(C(=O)N2CC[C@@H]3OCC(=O)N[C@@H]3C2)C1)c1ccc(F)cc1Cl` (single isomer, unassigned) [Example 117, (4aR,8aS)-6-[3-(R or S)-[1-(2-Chloro-4-fluoro-phenyl)ethoxy]azetidine-1-carbonyl]-4,4a,5,7,8,8a-hexahydropyrido[4,3-b][1,4]oxazin-3-one] yielded a half-inhibitory concentration (IC50) of 30 nM.

`O=C1CO[C@H]2CCN(C(=O)N3CC(c4ccc(N5CCC(C(F)(F)F)C5)nc4)C3)C[C@H]2N1` (stereo partly drawn) [Example 275, (4aR,8aS)-6-[3-[6-[3S-or 3R-(trifluoromethyl)pyrrolidin-1-yl]-3-pyridyl]azetidine-1-carbonyl]-4,4a,5,7,8,8a-hexahydropyrido[4,3-b][1,4]oxazin-3-one] registered a 50% inhibitory concentration (IC50) of 4 nM.

As for `CC(Oc1ccc(C2CN(C(=O)N3CC[C@@H]4OCC(=O)N[C@@H]4C3)C2)cc1)C(F)(F)F` (single isomer, unassigned) [Example 248, (4aR,8aS)-6-[3-(S or R)-[4-(2,2,2-Trifluoro-1-methyl-ethoxy)phenyl]azetidine-1-carbonyl]-4,4a,5,7,8,8a-hexahydropyrido[4,3-b][1,4]oxazin-3-one], the concentration for half-maximal inhibition (IC50) is 1 nM.

Compound `CC1CCN1c1ccc(C2CN(C(=O)N3CC[C@@H]4OCC(=O)N[C@@H]4C3)C2)cc1` (stereo partly drawn) [Example 217, (4aR,8aS)-6-(3-(4-(2-Methylazetidin-1-yl)phenyl)azetidine-1-carbonyl)hexahydro-2H-pyrido[4,3-b][1,4]oxazin-3(4H)-one] registered an IC50 of 6 nM.

`CC(c1ccc(C(F)(F)F)cc1)C1CCN(C(=O)N2CC[C@@H]3OCC(=O)N[C@@H]3C2)CC1` (single isomer, unassigned) [Example 47, (4aR,8aS)-6-(4-((S or R)-1-(4-(Trifluoromethyl)phenyl)ethyl)piperidine-1-carbonyl)hexahydro-2H-pyrido[4,3-b][1,4]oxazin-3(4H)-one] yielded an IC50 of 514 nM.

Consider `CCCc1ccc(C2CN(C(=O)N3CC[C@@H]4OCC(=O)N[C@@H]4C3)C2)cc1` [Example 242, (4aR,8aS)-6-(3-(4-Propylphenyl)azetidine-1-carbonyl)hexahydro-2H-pyrido[4,3-b][1,4]oxazin-3(4H)-one], for which the midpoint of inhibition, the IC50, lay at 2 nM.

On to `CC(C)(C)Oc1ccc(C2CN(C(=O)N3CC[C@@H]4OCC(=O)N[C@@H]4C3)C2)cc1` [Example 262, (4aR,8aS)-6-[3-(4-tert-Butoxyphenyl)azetidine-1-carbonyl]-4,4a,5,7,8,8a-hexahydropyrido[4,3-b][1,4]oxazin-3-one], for which inhibition was half-maximal at 1 nM (IC50).

The compound `N#Cc1cc(Cl)ccc1-c1ccc(C2CN(C(=O)N3CC[C@@H]4OCC(=O)N[C@@H]4C3)C2)cc1` [Example 159, 2-[4-[1-[(4aR,8aS)-3-Oxo-4,4a,5,7,8,8a-hexahydropyrido[4,3-b][1,4]oxazine-6-carbonyl]azetidin-3-yl]phenyl]-5-chloro-benzonitrile] yielded an IC50 of 0.1 nM.

For the compound `Cc1ccc(-c2ccc(C3CN(C(=O)N4CC[C@@H]5OCC(=O)N[C@@H]5C4)C3)cc2)cc1` [Example 144, (4aR,8aS)-6-(3-(4′-Methyl-[1,1′-biphenyl]-4-yl)azetidine-1-carbonyl)hexahydro-2H-pyrido[4,3-b][1,4]oxazin-3(4H)-one], half-maximal inhibition (IC50) required 1 nM.

In general, IC50 refers to the concentration needed to halve the response being measured. Lower therefore signals inhibition by little substance.
